Measured values published in ChEMBL document CHEMBL1201862, “PubChem BioAssay data set” (2004).
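Following 48 hours of exposure in 96-well plates, responses at five concentrations were used to interpolate endpoints linearly. GI50 = concentration required for 50% inhibition of growth.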 The source made the active and inactive calls. No stated cut-off is given here; in the data, active = GI50 up to about 1.1 µM and inactive = higher.

Tests used:
Assay in all cases: growth of human tumour cells (NCI), 48 h
786-0 = test system: 786-0
CCRF-CEM = test system: CCRF-CEM
HL-60 = test system: HL-60
HOP-92 = test system: HOP-92
K562 = test system: K562
LOX IMVI = test system: LOX IMVI
LXFL 529 = test system: LXFL 529
M14 = test system: M14
RPMI-8226 = test system: RPMI-8226
SF-268 = test system: SF-268
SK-MEL-28 = test system: SK-MEL-28
SK-MEL-2 = test system: SK-MEL-2
SK-OV-3 = test system: SK-OV-3
SNB-19 = test system: SNB-19
SR = test system: SR
UACC-62 = test system: UACC-62
A498 = test system: A498
DU-145 = test system: DU-145
MDA-N = test system: MDA-N
NCI/ADR-RES = test system: NCI/ADR-RES

SMILES | GI50 (786-0) | GI50 (CCRF-CEM) | GI50 (HL-60) | GI50 (HOP-92) | GI50 (K562) | GI50 (LOX IMVI) | GI50 (LXFL 529) | GI50 (M14) | GI50 (RPMI-8226) | GI50 (SF-268) | GI50 (SK-MEL-28) | GI50 (SK-MEL-2) | GI50 (SK-OV-3) | GI50 (SNB-19) | GI50 (SR) | GI50 (UACC-62) | GI50 (A498) | GI50 (DU-145) | GI50 (MDA-N) | GI50 (NCI/ADR-RES)
CCCCCCCCCCCCNC1(C)CNCCCNCCNCCCNC1 | 1.75 µM (inactive) | 1.38 µM (inactive) | 0.726 µM (active) | 1.85 µM (inactive) | 1.89 µM (inactive) | 1.84 µM (inactive) | 1.67 µM (inactive) | 1.79 µM (inactive) | 1.63 µM (inactive) | 1.34 µM (inactive) | 1.87 µM (inactive) | 1.9 µM (inactive) | 1.82 µM (inactive) | 1.76 µM (inactive) | 1.61 µM (inactive) | 1.82 µM (inactive) |  |  |  | 
Cc1ccc2[nH]c3c(C)c4c(c(C)c3c2c1)CN(C)C=C4 | 0.325 µM (active) |  | 4.46 µM (inactive) | 1.07 µM (active) | 1.42 µM (inactive) | 3.93 µM (inactive) | 0.377 µM (active) | 3.9 µM (inactive) | 5.35 µM (inactive) | 0.353 µM (active) | 1.98 µM (inactive) | 1.72 µM (inactive) | 0.33 µM (active) | 0.52 µM (active) | 1.61 µM (inactive) | 1.62 µM (inactive) |  |  |  | 
c1ccc2[nH]c(CNc3ccc(C4C[Se]N=N4)cc3)nc2c1 (stereo not given) | > 100 µM (inactive) | 25.7 µM (inactive) | 28.2 µM (inactive) | > 100 µM (inactive) | 27.9 µM (inactive) | 40.6 µM (inactive) | 18.7 µM (inactive) | 67.3 µM (inactive) | 25.6 µM (inactive) | 47.3 µM (inactive) | 78.9 µM (inactive) | 33 µM (inactive) | > 100 µM (inactive) | 84.1 µM (inactive) | 9.86 µM (inactive) | 24.7 µM (inactive) | > 100 µM (inactive) |  |  | 
O=c1[nH]ccc2c1ccn2C1CC(O)C(CO)O1 (stereo not given) | > 100 µM (inactive) | > 100 µM (inactive) | > 100 µM (inactive) | > 100 µM (inactive) | > 100 µM (inactive) | > 100 µM (inactive) | > 100 µM (inactive) | > 100 µM (inactive) | > 100 µM (inactive) |  | > 100 µM (inactive) | > 100 µM (inactive) | > 100 µM (inactive) | > 100 µM (inactive) | > 100 µM (inactive) | > 100 µM (inactive) | > 100 µM (inactive) |  |  | 
Cc1cc2c(c3c1c1ccccc1n3C)C(=O)C=CC2=O | 5.6 µM (inactive) | 0.631 µM (active) | 1.45 µM (inactive) | 12.9 µM (inactive) | 3.15 µM (inactive) | 16.9 µM (inactive) | 5.6 µM (inactive) | 25.6 µM (inactive) | 2.82 µM (inactive) | 23.9 µM (inactive) | 19.9 µM (inactive) | 21.6 µM (inactive) | 55.5 µM (inactive) | 63.7 µM (inactive) | 0.885 µM (active) | 19.6 µM (inactive) | 47.5 µM (inactive) | 58.9 µM (inactive) | 24.5 µM (inactive) | 35.8 µM (inactive)
N#CC1=C(c2ccccc2)NN(Cc2ccccc2)C(c2ccc(Cl)cc2)CC1=O (stereo not given) | 24.3 µM (inactive) | 7.89 µM (inactive) | 28.2 µM (inactive) | 16.3 µM (inactive) |  | 18 µM (inactive) | 20.4 µM (inactive) |  | 18.8 µM (inactive) | 29.3 µM (inactive) | 39.8 µM (inactive) | 25.8 µM (inactive) | > 10 µM (inactive) | 22.5 µM (inactive) | 20.6 µM (inactive) |  | 24.8 µM (inactive) |  |  | 
COC(=O)/C(=C/CC(N=C(c1ccccc1)c1ccccc1)C(=O)OC)N=C(c1ccccc1)c1ccccc1 (stereo not given) | > 100 µM (inactive) | > 100 µM (inactive) | > 100 µM (inactive) |  | > 100 µM (inactive) | > 100 µM (inactive) | > 100 µM (inactive) | > 100 µM (inactive) | 79.3 µM (inactive) | > 100 µM (inactive) | > 100 µM (inactive) | > 100 µM (inactive) | 39 µM (inactive) | > 100 µM (inactive) | > 100 µM (inactive) | > 100 µM (inactive) |  |  |  | 
O=C1NCCS(=O)(=O)N[C@@H](CC2=CC=CCC2)C(=O)N2CCCC12 (stereo not given in full) | > 100 µM (inactive) | > 100 µM (inactive) | > 100 µM (inactive) | > 100 µM (inactive) | > 100 µM (inactive) | > 100 µM (inactive) | > 100 µM (inactive) | > 100 µM (inactive) | > 100 µM (inactive) | > 100 µM (inactive) | > 100 µM (inactive) | > 100 µM (inactive) | > 100 µM (inactive) | > 100 µM (inactive) | > 100 µM (inactive) | > 100 µM (inactive) | > 100 µM (inactive) |  |  | 
COc1ccc(/C(=N/NC(N)=O)C(c2ccc(OC)cc2)C2C(=O)Oc3ccccc32)cc1 (stereo not given) | > 100 µM (inactive) | > 100 µM (inactive) | > 100 µM (inactive) | 75 µM (inactive) | > 100 µM (inactive) | > 100 µM (inactive) | > 100 µM (inactive) | > 100 µM (inactive) | > 100 µM (inactive) | > 100 µM (inactive) | > 100 µM (inactive) |  | > 100 µM (inactive) | > 100 µM (inactive) | > 100 µM (inactive) | > 100 µM (inactive) |  |  |  | 
CSc1nc(NC2OC(COC(C)=O)C(OC(C)=O)C(OC(C)=O)C2OC(C)=O)c2c(n1)OCC2=O (stereo not given) | > 100 µM (inactive) | > 100 µM (inactive) | > 100 µM (inactive) | > 100 µM (inactive) | > 100 µM (inactive) | > 100 µM (inactive) | > 100 µM (inactive) | > 100 µM (inactive) | > 100 µM (inactive) | > 100 µM (inactive) | > 100 µM (inactive) | > 100 µM (inactive) | > 100 µM (inactive) | > 100 µM (inactive) | > 100 µM (inactive) | > 100 µM (inactive) | > 100 µM (inactive) |  |  | 
OC1(C23CC4CC(CC(C4)C2)C3)CSCC1(O)C12CC3CC(CC(C3)C1)C2 (stereo not given) | > 100 µM (inactive) | > 10 µM (inactive) | > 10 µM (inactive) | > 100 µM (inactive) | > 100 µM (inactive) |  | > 100 µM (inactive) | > 100 µM (inactive) | > 100 µM (inactive) | > 100 µM (inactive) | > 100 µM (inactive) | > 100 µM (inactive) | > 100 µM (inactive) | > 100 µM (inactive) | > 100 µM (inactive) | 70.6 µM (inactive) |  |  |  | 
CC#CC1C(OC(=O)c2ccccc2)CCCC1(CI)N=[N+]=[N-] (stereo not given) | > 100 µM (inactive) | 26.2 µM (inactive) | 15.1 µM (inactive) | 92.7 µM (inactive) | 28.4 µM (inactive) |  | 36.4 µM (inactive) | 59.8 µM (inactive) | 18.5 µM (inactive) | 67 µM (inactive) |  | 75 µM (inactive) | > 100 µM (inactive) |  | 17.5 µM (inactive) | > 100 µM (inactive) | > 100 µM (inactive) |  |  | 
O=C(O)CC[C@H](NC(=O)c1ccc(-n2nc3ccc(=O)cc-3[nH]c2=O)cc1)C(=O)O | > 100 µM (inactive) | > 100 µM (inactive) | > 100 µM (inactive) | > 100 µM (inactive) | > 100 µM (inactive) |  | > 100 µM (inactive) | > 100 µM (inactive) | > 100 µM (inactive) | > 100 µM (inactive) | > 100 µM (inactive) | > 100 µM (inactive) |  | > 100 µM (inactive) | > 100 µM (inactive) | > 100 µM (inactive) | > 100 µM (inactive) |  |  | 
CC1(C)COC2(OC1)C1=NS(=O)(=O)CC13CCC2C3(C)C (stereo not given) | > 100 µM (inactive) | > 100 µM (inactive) | > 100 µM (inactive) | > 100 µM (inactive) | > 100 µM (inactive) | > 100 µM (inactive) | > 100 µM (inactive) | > 100 µM (inactive) | > 100 µM (inactive) | > 100 µM (inactive) | > 100 µM (inactive) | > 100 µM (inactive) | > 100 µM (inactive) | > 100 µM (inactive) | > 100 µM (inactive) | > 100 µM (inactive) | > 100 µM (inactive) |  |  | 
CCn1c2ccccc2c(=O)c2c(OC)ccc(OC)c21 | 51.3 µM (inactive) | 48 µM (inactive) | 29.6 µM (inactive) | 39 µM (inactive) | 37.2 µM (inactive) | 36.1 µM (inactive) | 34 µM (inactive) | 79.8 µM (inactive) | 35.5 µM (inactive) | 83.9 µM (inactive) |  | 75.5 µM (inactive) | 64.9 µM (inactive) | 49.9 µM (inactive) | 34.9 µM (inactive) | 43.6 µM (inactive) | 25.4 µM (inactive) |  |  | 
CC1OC(n2cc(F)c(=O)[nH]c2=O)CCC1=O (stereo not given) | > 100 µM (inactive) | > 100 µM (inactive) | 74.6 µM (inactive) | > 100 µM (inactive) | > 100 µM (inactive) | 88.1 µM (inactive) | > 100 µM (inactive) | > 100 µM (inactive) | 49.7 µM (inactive) | > 100 µM (inactive) |  | > 100 µM (inactive) | > 100 µM (inactive) | > 100 µM (inactive) | > 100 µM (inactive) | > 100 µM (inactive) | 30.4 µM (inactive) |  |  | 
